From patent US9808443B1, “Cyclooxygenase inhibitors” (KING SAUD UNIVERSITY, priority 2016, dated 2017)
Each block holds one molecule with its values, some of them ahead of it.

Tests used:
[1] = test system: carrageenan-induced rat paw edema; assay: carrageenan-induced rat paw edema method (anti-inflammatory activity); assay type: in vivo; conditions: for anti-inflammatory activity (in words): compared with standard drug indomethacin; for anti-inflammatory activity, % inhibition of paw edema: equimolar oral dose, rat
Procedure: For the experimental results described below, healthy male albino rats (200 g-220 g) were used for the study. The animals were kept in standard plastic animal cages in groups of six animals each with 12 hour light and dark cycle at 25±2° C. The rats were fed on standard rat chow and provided water ad libitum. The animals were acclimatized to laboratory conditions for a week prior to experiments. Anti-inflammatory activity of the synthesized compounds S1-S18 was determined by the carrageenan-induced rat paw edema method. The compounds were tested at equimolar oral dose and were compared with the standard drug indomethacin. […]. Three compounds, namely S14, S7 and S3 containing R=2,4,5-trimethoxyphenyl; […].
Anti-inflammatory activity was determined by a carrageenan-induced rat paw edema method. Male rats weighing 200 g were housed in a room with a controlled temperature and 12 hour light/12 hour dark cycle, housed in a specific pathogen free environment, and fed standard rodent chow and given water ad libitum. Each treatment group and vehicle group consisted of six randomly assigned animals. Compounds were administered p.o. suspension. Paw edema was induced by intradermal injection of 50 μL of 1% carrageenan into the sub plantar region of the right hind paw, after one hour of compound administration. […] The control group received only the vehicle. Increase in paw edema was compared with that in the control group and percent inhibition was calculated taking the values in the control group as 0% inhibition.

[2] = test system: COX-1; assay: Western blot of COX-1 expression in rat gastric mucosa damaged by ethanol; assay type: in vivo; conditions: ethanol induced model, S3 25.6 mg/kg, indomethacin 25 mg/kg
[3] = test system: ethanol-induced gastric ulcer; assay: ethanol induced ulcer model (gastro-protective activity: ulcer index, mucus, PAS staining, histology); assay type: in vivo, rat; conditions: for histology of gastric tissue (in words): S3 25.6 mg/kg, indomethacin 25 mg/kg; for Ulcer index Mean ± SEM: pretreatment orally (S3 25.6 mg/kg, indomethacin 25 mg/kg) 1 hour before ethanol 95% 20 mL/kg, rats
Source text: Gastric mucus plays crucial role in gastro-protection. […] The mucus was formed from mucin-type glycoprotein. The mucus gel adhering to the gastric mucosal surface defends the epithelium beneath against acid, pepsin and necrotizing agents, such as ethanol and indomethacin. […] Gastric wall mucus coating might be relieved in the repair of the damaged gastric epithelium. […] The rats were grouped into five groups (n=6). Group I and II received saline solution and served as negative-control and ulcer-control, respectively. […] The animals were sacrificed 1 hour later under anesthesia and their stomachs were quickly removed for further studies. Periodic acid-Schiff (PAS) staining was used to observe the glycogen level in control and pretreated animals. […] Ethanol-induced gastric ulcers result from several mechanisms, including reduction of gastric mucus and impaired mucosal permeability, and leads to increased leakage of hydrogen ions from the lumen and decreased transluminal membrane potential difference. With regard to the gross gastric lesion evaluation, the stomach of each rat was opened along the greater arc and washed with saline water to remove gastric contents. Gastric ulcers appear as elongated bands on the gastric mucosa with hemorrhagic lesions being parallel to the long axis of the stomach. The mucosa was assessed for damage under dissecting microscope (1.8×) and a planimeter was used to measure the ulcers area (hemorrhagic lesions). The length and width of each lesion were measured and the sum of the area of all lesions for each stomach was expressed as the ulcer area (mm^2). To determine mucus production of the gastric mucosa, the gastric mucosa of each rat was gently scraped using a glass slide and the mucus obtained was weighed using a precision electronic balance. For the histologic studies, gastric tissues were collected and fixed in 10% formalin after sacrifice. Then, each sample was embedded in paraffin and cut into 5 μm thick slices for morphological and pathological evaluation. Tissue sections were stained with hematoxylin and eosin (H & E) and examined under a light microscope.

[4] = test system: malondialdehyde (MDA) content; conditions: rat, in vivo
Procedure: The mixture was heated at 95° C. for 60 minutes. After cooling, the reactants were supplemented with 5 mL of a mixture of n-butanol:pyridine (15:1 v/v), shaken vigorously for 1 minute and centrifuged for 10 minutes at 4000 rpm. The supernatant organic layer was taken out and absorbance was measured at 532 nm on a UV spectrophotometer. The results were expressed as nmol MDA/100 mg tissue. Data are expressed as mean±S.E.M., and the student's t-test was applied to determine the significance of the difference between the standard group and rats treated with the test compounds. The lipid peroxidation was measured as nanomoles of MDA content/100 mg of liver and kidney tissue.

[5] = test system: nociceptive response on hot plate; assay: hot plate test (analgesic activity); assay type: in vivo; parameters: concentration or dose not given beside the values; conditions: hot plate 58° C.; mice; 120 min after injection
Procedure: Male albino Swiss mice (25 g body weight) were divided into various groups (n=6). Each mouse was initially placed on a hot plate thermostatically maintained at 58° C. […] This time was considered as the control reaction time. A cut-off time of 60 s was used to avoid damage to the paws. To test the analgesic activity of the compounds, each group of mice was treated with one dose of the test compounds. The reaction time was then retested at 0 hour and 120 min after injection (each animal acted as its own control). The percentage changes in the reaction were then calculated.

[6] = LD50 determination by the Karber method; conditions: in vivo, mouse, 24 hours observation
Procedure: The LD50 of compound S3 was determined by the Karber method. […] For LD50 determination, an observation was made for each mouse for 24 hours and symptoms of toxicity and rate of mortality in each group were noted. At the end of the study period, expired animals were counted for the calculation of LD50. The following method was used for the determination of LD50: LD50=LD100−Σ×(a×b)/n, where n is the total number of animals in a group, a is the difference between two successive doses of administered extract/substance, b is the average number of dead animals in two successive doses, and LD100 is the lethal dose causing 100% death of all test animals.

[7] = test system: gastric mucosa; conditions: rat, in vivo
Procedure: For acute ulcerogenesis testing, albino rats were divided into different groups consisting of six animals in each group. […] Control rats received p.o. administration of vehicle (suspension of 1% methyl cellulose). Food (but not water) was removed 24 hours before administration of the test compounds. After the drug treatment, the rats were fed a normal diet for 17 hours and then sacrificed. The stomach was removed and opened along the greater curvature, washed with distilled water and cleaned gently by dipping in saline. The mucosal damage was examined by means of a magnifying glass. For each stomach, the mucosal damage was assessed according to the following scoring system: 0.5 redness; 1.0 spot ulcers; 1.5 hemorrhagic streaks; 2.0 ulcers <3 but ≦5; 3.0 ulcers >5. All of the compounds were tested at equimolar oral doses.

[8] = test system: COX-2; assay: Western blot of COX-2 expression in rat gastric mucosa damaged by ethanol; conditions: ethanol induced model, S3 25.6 mg/kg, indomethacin 25 mg/kg
Procedure: A Western blot was performed for COX-1. […] For the Western blot analysis, 20 μg of protein was transferred to PVDF membranes, blocked in 5% skim milk in TBS buffer 1% Tween 20, and then incubated overnight with the COX-1, COX-2 and β-actin, followed by HRP-conjugated anti-rat/rabbit/goat antibodies for 2 hours at 25° C. Bands were visualized with the Luminata Western Chemiluminescent HRP Substrates and densitometric analysis of bands were assessed using LI-COR C-DiGit blot scanners.

[9] = pretreated rats, ethanol induced ulcer

SMILES: COc1ccc2[nH]c(C)c(CC(=O)N/N=C/c3cccc([N+](=O)[O-])c3)c2c1 [Compound S3, 2-(5-methoxy-2-methyl-1H-indol-3-yl)-N′-[(E)-(3-nitrophenyl)methylidene] acetohydrazide]
anti-inflammatory activity (in words) [1]: most potent compounds with significant anti-inflammatory activity
COX-1 expression / inhibition by Western blot (in words) [2]: weak COX-1 expression
histology of gastric tissue (in words) ([3]; ethanol induced ulcer): normal glandular pattern with mild inflammation and infiltration of leucocytes
PAS staining of gastric mucosa (in words) [3, 9]: substantially continuous PAS-positive mucous gel layer
mucus production by gastric mucosa (in words) [3, 9]: increased gradually
Ulcer index Mean ± SEM [3]: 2.83±0.87 mm^2
lipid peroxidation (in words) [4]: maximum reduction in gastric ulceration and lipid peroxidation
analgesic activity (percentage change in reaction time) [5]: 61.36%
LD50 at 24 h [6]: 35 mg/kg
ulcerogenic activity (in words) [7]: less ulcerogenic than the reference drug indomethacin
COX-2 expression / inhibition by Western blot (in words) [8]: potent COX-2 inhibition

melting point: 210 to 212 °C
SMILES: COc1ccc2[nH]c(C)c(CC(=O)N/N=C/c3ccccc3[N+](=O)[O-])c2c1 [Compound S4, 2-(5-methoxy-2-methyl-1H-indol-3-yl)-N′-[(E)-(2-nitrophenyl)methylidene] acetohydrazide]

melting point: 180 to 182 °C
SMILES: COc1ccc2[nH]c(C)c(CC(=O)N/N=C/c3ccc(Cl)cc3)c2c1 [Compound S5, N′-[(E)-(4-chlorophenyl)methylidene]-2-(5-methoxy-2-methyl-1H-indol-3-yl)acetohydrazide]

melting point: 238 to 240 °C
SMILES: COc1ccc2[nH]c(C)c(CC(=O)N/N=C/c3ccc(Cl)cc3Cl)c2c1 [Compound S6, N′-[(E)-(2,4-dichlorophenyl)methylidene]-2-(5-methoxy-2-methyl-1H-indol-3-yl)acetohydrazide]

melting point: 210 to 212 °C
SMILES: COc1ccc2[nH]c(C)c(CC(=O)N/N=C/c3ccc(OC)c(OC)c3)c2c1 [Compound S7, 2-(5-methoxy-2-methyl-1H-indol-3-yl)-N′-[(E)-(3,4-dimethoxyphenyl)methylidene] acetohydrazide]
anti-inflammatory activity (in words) [1]: most potent compounds with significant anti-inflammatory activity
analgesic activity (percentage change in reaction time) [5]: 47.72%
ulcerogenic activity (in words) [7]: less ulcerogenic than the reference drug indomethacin

melting point: 220 to 222 °C
SMILES: COc1ccc2[nH]c(C)c(CC(=O)N/N=C/c3ccccc3OC)c2c1 [Compound S8, 2-(5-methoxy-2-methyl-1H-indol-3-yl)-N′-[(E)-(2-methoxyphenyl)methylidene] acetohydrazide]

SMILES: COc1ccc2[nH]c(C)c(CC(=O)N/N=C/c3ccc(O)cc3)c2c1 [Compound S9, N-[(E)-(4-hydroxyphenyl)methylidene]-2-(5-methoxy-2-methyl-1H-indol-3-yl)acetohydrazide]
analgesic activity (percentage change in reaction time) [5]: 55.81%

melting point: 145 to 147 °C
SMILES: COc1ccc2[nH]c(C)c(CC(=O)N/N=C/c3cccc(O)c3)c2c1 [Compound S10, N′-[(E)-(3-hydroxyphenyl)methylidene]-2-(5-methoxy-2-methyl-1H-indol-3-yl)acetohydrazide]
analgesic activity (percentage change in reaction time) [5]: 62.50%

melting point: 200 to 202 °C
SMILES: COc1ccc2[nH]c(C)c(CC(=O)N/N=C/c3ccc(N(C)C)cc3)c2c1 [Compound S11, 2-(5-methoxy-2-methyl-1H-indol-3-yl)-N′-{(E)-[4-(dimethylamino)phenyl]methylidene}acetohydrazide]

melting point: 195 to 197 °C
SMILES: COc1cccc(/C=N/NC(=O)Cc2c(C)[nH]c3ccc(OC)cc23)c1 [Compound S12, 2-(5-methoxy-2-methyl-1H-indol-3-yl)-N′-[(E)-(3-methoxyphenyl)methylidene] acetohydrazide]

melting point: 213 to 215 °C
SMILES: CCOc1ccc(/C=N/NC(=O)Cc2c(C)[nH]c3ccc(OC)cc23)cc1 [Compound S13, N′-[(E)-(4-ethoxyphenyl)methylidene]-2-(5-methoxy-2-methyl-1H-indol-3-yl)acetohydrazide]

melting point: 238 to 240 °C
SMILES: COc1ccc2[nH]c(C)c(CC(=O)N/N=C/c3cc(OC)c(OC)cc3OC)c2c1 [Compound S14, 2-(5-methoxy-2-methyl-1H-indol-3-yl)-N′-[(E)-(2,4,5-trimethoxyphenyl)methylidene]acetohydrazide]
anti-inflammatory activity (in words) [1]: most potent compounds with significant anti-inflammatory activity
analgesic activity (percentage change in reaction time) [5]: 70.27%
ulcerogenic activity (in words) [7]: less ulcerogenic than the reference drug indomethacin

melting point: 250 to 252 °C
SMILES: COc1ccc2[nH]c(C)c(CC(=O)N/N=C/c3ccc(OC)c(OC)c3OC)c2c1 [Compound S15, 2-(5-methoxy-2-methyl-1H-indol-3-yl)-N′-[(E)-(2,3,4-trimethoxyphenyl)methylidene]acetohydrazide]

melting point: 233 to 235 °C
SMILES: COc1ccc2[nH]c(C)c(CC(=O)N/N=C/c3cc(OC)c(OC)c(OC)c3)c2c1 [Compound S16, 2-(5-methoxy-2-methyl-1H-indol-3-yl)-N′-[(E)-(3,4,5-trimethoxyphenyl)methylidene]acetohydrazide]

melting point: 230 to 232 °C
SMILES: COc1cc(OC)c(/C=N/NC(=O)Cc2c(C)[nH]c3ccc(OC)cc23)c(OC)c1 [Compound S17, 2-(5-methoxy-2-methyl-1H-indol-3-yl)-N′-[(E)-(2,4,6-trimethoxyphenyl)methylidene]acetohydrazide]
analgesic activity (percentage change in reaction time) [5]: 61.53%

melting point: 170 to 172 °C
SMILES: COc1ccc(/C=N/NC(=O)Cc2c(C)[nH]c3ccc(OC)cc23)c(OC)c1 [Compound S18, 2-(5-methoxy-2-methyl-1H-indol-3-yl)-N′-[(E)-(2,4-dimethoxyphenyl)methylidene]acetohydrazide]

SMILES: COc1ccc2c(c1)c(CC(=O)O)c(C)n2C(=O)c1ccc(Cl)cc1 [indomethacin, reference compound]
anti-inflammatory activity, % inhibition of paw edema ([1]; after 2 hours): 77.23%
anti-inflammatory activity, % inhibition of paw edema ([1]; after 4 hours): 76.89%
COX-1 expression / inhibition by Western blot (in words) [2]: potent COX-1 inhibitor
histology of gastric tissue (in words) ([3]; ethanol induced ulcer): severe ulceration in comparison with the ethanol induced ulceration
PAS staining of gastric mucosa (in words) [3, 9]: did not exhibit this magenta staining color of PAS
Ulcer index Mean ± SEM [3]: 12.34±0.73 mm^2
Ulcer index Mean ± SEM ([3]; listed as Indomethacin): 12.34 ± 0.73 mm^2
